Reference: patent US20250114374A1, “BCL-2 INHIBITORS” (Newave Pharmaceutical Inc., priority 2021, published 2025)

The molecules below were run on RS4; 11 with G101V mutation (assay: In vitro anti-proliferation assay (ATPlite luminescence) in BCL-2-dependent ALL cell line RS4;11 with G101V mutation). Conditions: cellular anti-proliferative IC50, about 72 hours, medium with 10% FBS, ATPlite; read-out: RS411-G101V IC50.
Type: cell-based
Method in brief: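 RS4;11 G101V cells at about 1×10^4 per well were exposed to a range of compound concentrations for about 72 h in medium with 10% FBS. Cellular ATP was measured by ATPlite luminescence after lysis, and IC50 was derived from the dose-response.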

Row | SMILES | IC50 [nM]
1 | Cc1ccccc1[C@@H]1CN(Cc2cnc3c(c2)OCCO3)CCN1C1CC2(CCN(c3ccc(C(=O)NS(=O)(=O)c4ccc(NCC5CCC(C)(O)CC5)c([N+](=O)[O-])c4)c(N4c5cc6cc[nH]c6nc5O[C@H]5COCC[C@@H]54)c3)CC2)C1 (stereo partly drawn) [Example 125, 2-[(3R,8S)-2,5-dioxa-9,15,17-triazatetracyclo[8.7.0.0^{3,8}.0^{12,16}]heptadeca-1(10),11,13,16-tetraen-9-yl]-4-{2-[(2R)-4-{2H,3H-[1,4]dioxino[2,3-b]pyridin-7-ylmethyl}-2-(2-methylphenyl)piperazin-1-yl]-7-azaspiro[3.5]nonan-7-yl}-N-[3-nitro-4-({[(1r,4r)-4-hydroxy-4-methylcyclohexyl]methyl}amino)benzenesulfonyl]benzamide] | 13.9
2 | COc1cc(CN2CCN(C3CC4(CCN(c5ccc(C(=O)NS(=O)(=O)c6ccc(NCC7CCC(C)(O)CC7)c([N+](=O)[O-])c6)c(N6c7cc8cc[nH]c8nc7O[C@H]7COCC[C@@H]76)c5)CC4)C3)[C@@H](c3ccccc3OC(C)C)C2)cnc1N1CCOC[C@@H]1C (stereo partly drawn) [Example 126, N-((4-((((1r,4r)-4-hydroxy-4-methylcyclohexyl)methyl)amino)-3-nitrophenyl)sulfonyl)-4-(2-((S)-2-(2-isopropoxyphenyl)-4-((5-methoxy-6-((S)-3-methylmorpholino)pyridin-3-yl)methyl)piperazin-1-yl)-7-azaspiro[3.5]nonan-7-yl)-2-((5aS,9aR)-6,7,9,9a-tetrahydro-1H-pyrano[3,4-b]pyrrolo[3′,2′:5,6]pyrido[3,2-e][1,4]oxazin-5(5aH)-yl)benzamide] | 11.7
3 | CC(C)Oc1ccccc1[C@H]1CN(Cc2ccnc3c2OCC(C)(C)O3)CCN1C1CC2(CCN(c3ccc(C(=O)NS(=O)(=O)c4ccc(NCC5CCC(C)(O)CC5)c([N+](=O)[O-])c4)c(N4c5cc6cc[nH]c6nc5O[C@H]5COCC[C@@H]54)c3)CC2)C1 (stereo partly drawn) [Example 127, 4-(2-((S)-4-((3,3-dimethyl-2,3-dihydro-[1,4]dioxino[2,3-b]pyridin-8-yl)methyl)-2-(2-isopropoxyphenyl)piperazin-1-yl)-7-azaspiro[3.5]nonan-7-yl)-N-((4-((((1r,4r)-4-hydroxy-4-methylcyclohexyl)methyl)amino)-3-nitrophenyl)sulfonyl)-2-((5aS,9aR)-6,7,9,9a-tetrahydro-1H-pyrano[3,4-b]pyrrolo[3′,2′:5,6]pyrido[3,2-e][1,4]oxazin-5(5aH)-yl)benzamide] | 8.1
4 | CC(C)Oc1ccccc1[C@H]1CN(Cc2ccc(N3CCOCC3)cn2)CCN1C1CC2(CCN(c3ccc(C(=O)NS(=O)(=O)c4ccc(NCC5CCC(C)(O)CC5)c([N+](=O)[O-])c4)c(N4c5cc6cc[nH]c6nc5O[C@H]5COCC[C@@H]54)c3)CC2)C1 (stereo partly drawn) [Example 128, N-((4-((((1r,4r)-4-hydroxy-4-methylcyclohexyl)methyl)amino)-3-nitrophenyl)sulfonyl)-4-(2-((S)-2-(2-isopropoxyphenyl)-4-((5-morpholinopyridin-2-yl)methyl)piperazin-1-yl)-7-azaspiro[3.5]nonan-7-yl)-2-((5aS,9aR)-6,7,9,9a-tetrahydro-1H-pyrano[3,4-b]pyrrolo[3′,2′:5,6]pyrido[3,2-e][1,4]oxazin-5(5aH)-yl)benzamide] | 22.2
5 | COc1cc(CN2CCN(C3CC4(CCN(c5ccc(C(=O)NS(=O)(=O)c6ccc(NCC7CCC(C)(O)CC7)c([N+](=O)[O-])c6)c(N6c7cc8cc[nH]c8nc7O[C@H]7COCC[C@@H]76)c5)CC4)C3)[C@@H](c3ccccc3OC(C)C)C2)cc2cc(C)oc12 (stereo partly drawn) [Example 129, N-((4-((((1r,4r)-4-hydroxy-4-methylcyclohexyl)methyl)amino)-3-nitrophenyl)sulfonyl)-4-(2-((S)-2-(2-isopropoxyphenyl)-4-((7-methoxy-2-methylbenzofuran-5-yl)methyl)piperazin-1-yl)-7-azaspiro[3.5]nonan-7-yl)-2-((5aS,9aR)-6,7,9,9a-tetrahydro-1H-pyrano[3,4-b]pyrrolo[3′,2′:5,6]pyrido[3,2-e][1,4]oxazin-5(5aH)-yl)benzamide] | 33.9
6 | COc1cc(CN2CCN(C3CC4(CCN(c5ccc(C(=O)NS(=O)(=O)c6cc7c(c([N+](=O)[O-])c6)N[C@@H](C6CCC(C)(O)CC6)CO7)c(N6c7cc8cc[nH]c8nc7O[C@H]7COCC[C@@H]76)c5)CC4)C3)[C@@H](c3ccccc3OC(C)C)C2)cnc1N1CCOCC1 (stereo partly drawn) [Example 130, 2-[(3R,8S)-2,5-dioxa-9,15,17-triazatetracyclo[8.7.0.0^{3,8}.0^{12,16}]heptadeca-1(10),11,13,16-tetraen-9-yl]-4-{2-[(2S)-2-(2-isopropoxyphenyl)-4-{[5-methoxy-6-(morpholin-4-yl)pyridin-3-yl]methyl}piperazin-1-yl]-7-azaspiro[3.5]nonan-7-yl}-N-[(3S)-5-nitro-3-[(1r,4S)-4-hydroxy-4-methylcyclohexyl]-3,4-dihydro-2H-1,4-benzoxazin-7-ylsulfonyl]benzamide] | 13.1
7 | COc1cc(CN2CCN(C3CC4(CCN(c5ccc(C(=O)NS(=O)(=O)c6ccc(NCC7CCOCC7)c([N+](=O)[O-])c6)c(N6c7cc8cc[nH]c8nc7O[C@H]7COCC[C@@H]76)c5)CC4)C3)[C@@H](c3ccccc3OC(C)C)C2)cnc1N1CCOCC1 [Example 131, 2-[(3R,8S)-2,5-dioxa-9,15,17-triazatetracyclo[8.7.0.0^{3,8}.0^{12,16}]heptadeca-1(10),11,13,16-tetraen-9-yl]-4-{2-[(2S)-2-(2-isopropoxyphenyl)-4-{[5-methoxy-6-(morpholin-4-yl)pyridin-3-yl]methyl}piperazin-1-yl]-7-azaspiro[3.5]nonan-7-yl}-N-{3-nitro-4-[(oxan-4-ylmethyl)amino]benzenesulfonyl}benzamide] | 34.6
8 | COc1cc(CN2CCN(C3CC4(CCN(c5ccc(C(=O)NS(=O)(=O)c6ccc(NCC7CCOCC7)c([N+](=O)[O-])c6)c(N6c7cc8cc[nH]c8nc7O[C@H]7COCC[C@@H]76)c5)CC4)C3)[C@@H](c3ccccc3OC(C)C)C2)cnc1N1CCOCC1 [Example 132, 2-[(3R,8S)-2,5-dioxa-9,15,17-triazatetracyclo[8.7.0.0^{3,8}.0^{12,16}]heptadeca-1(10),11,13,16-tetraen-9-yl]-4-{2-[(2S)-2-(2-isopropoxyphenyl)-4-{[5-methoxy-6-(morpholin-4-yl)pyridin-3-yl]methyl}piperazin-1-yl]-7-azaspiro[3.5]nonan-7-yl}-N-{3-nitro-4-[(oxan-4-ylmethyl)amino]benzenesulfonyl}benzamide] | 32.2
9 | COc1cc(CN2CCN(C3CC4(CCN(c5ccc(C(=O)NS(=O)(=O)c6ccc(NCC7CCOCC7)c([N+](=O)[O-])c6)c(N6c7cc8cc[nH]c8nc7O[C@H]7COCC[C@@H]76)c5)CC4)C3)[C@@H](c3ccccc3OC(C)C)C2)cnc1N1CCOCC1 [Example 133, 2-[(3R,8S)-2,5-dioxa-9,15,17-triazatetracyclo[8.7.0.0^{3,8}.0^{12,16}]heptadeca-1(10),11,13,16-tetraen-9-yl]-4-{2-[(2S)-2-(2-isopropoxyphenyl)-4-{[5-methoxy-6-(morpholin-4-yl)pyridin-3-yl]methyl}piperazin-1-yl]-7-azaspiro[3.5]nonan-7-yl}-N-{3-nitro-4-[(oxan-4-ylmethyl)amino]benzenesulfonyl}benzamide] | 32.4
10 | COc1cc(CN2CCN(C3CC4(CCN(c5ccc(C(=O)NS(=O)(=O)c6ccc(NCC7CCC(C)(O)CC7)c([N+](=O)[O-])c6)c(N6c7cc8cc[nH]c8nc7O[C@H]7COCC[C@@H]76)c5)CC4)C3)[C@@H](c3ccccc3OC(C)C)C2)cnc1C1CC1 (stereo partly drawn) [Example 134, 4-{2-[(2S)-4-[(6-cyclopropyl-5-methoxypyridin-3-yl)methyl]-2-(2-isopropoxyphenyl)piperazin-1-yl]-7-azaspiro[3.5]nonan-7-yl}-2-[(3R,8S)-2,5-dioxa-9,15,17-triazatetracyclo[8.7.0.0^{3,8}.0^{12,16}]heptadeca-1(10),11,13,16-tetraen-9-yl]-N-[3-nitro-4-({[(1r,4r)-4-hydroxy-4-methylcyclohexyl]methyl}amino)benzenesulfonyl]benzamide] | 18.8
11 | COc1cc(CN2CCN(C3CC4(CCN(c5ccc(C(=O)NS(=O)(=O)c6ccc(NCC7CCC(C)(O)CC7)c([N+](=O)[O-])c6)c(N6c7cc8cc[nH]c8nc7O[C@H]7COCC[C@@H]76)c5)CC4)C3)[C@@H](c3ccccc3OC(C)C)C2)cnc1C (stereo partly drawn) [Example 135, 2-[(3R,8S)-2,5-dioxa-9,15,17-triazatetracyclo[8.7.0.0^{3,8}.0^{12,16}]heptadeca-1(10),11,13,16-tetraen-9-yl]-4-{2-[(2S)-2-(2-isopropoxyphenyl)-4-[(5-methoxy-6-methylpyridin-3-yl)methyl]piperazin-1-yl]-7-azaspiro[3.5]nonan-7-yl}-N-[3-nitro-4-({[(1r,4r)-4-hydroxy-4-methylcyclohexyl]methyl}amino)benzenesulfonyl]benzamide] | 11.2
12 | COc1ncc(CN2CCN(C3CC4(CCN(c5ccc(C(=O)NS(=O)(=O)c6ccc(NCC7CCC(C)(O)CC7)c([N+](=O)[O-])c6)c(N6c7cc8cc[nH]c8nc7O[C@H]7COCC[C@@H]76)c5)CC4)C3)[C@@H](c3ccccc3OC(C)C)C2)cc1C1CC1 (stereo partly drawn) [Example 136, 4-{2-[(2S)-4-[(5-cyclopropyl-6-methoxypyridin-3-yl)methyl]-2-(2-isopropoxyphenyl)piperazin-1-yl]-7-azaspiro[3.5]nonan-7-yl}-2-[(3R,8S)-2,5-dioxa-9,15,17-triazatetracyclo[8.7.0.0^{3,8}.0^{12,16}]heptadeca-1(10),11,13,16-tetraen-9-yl]-N-[3-nitro-4-({[(1r,4r)-4-hydroxy-4-methylcyclohexyl]methyl}amino)benzenesulfonyl]benzamide] | 35.6
